Assay: logP determination by HPLC (EEC directive 79/831 Annex V. A8)
Format: physicochemical
Conditions: HPLC gradient method, acetonitrile/0.1% aqueous phosphoric acid
[1] = E/Z mixture, first value (matches the E isomer)
[2] = E/Z mixture, second printed value (matches the Z isomer)
[3] = single isomer (E or Z as in isomer column)

SMILES	logP [3]	logP [1]	logP [2]	other results
CCOc1ccc(CCNC(=O)C(=NOC)c2ccc(Cl)cc2)cc1OC (racemic) [Example 1, N-[2-(4-ethoxy-3-methoxyphenyl)-1-ethyl]-2-methoxyimino-2-(4-chlorophenyl)-acetamide]				chromatographic logP [1]: 3.08; chromatographic logP [2]: 3.26
CCON=C(C(=O)NCCc1ccc(OCC)c(OC)c1)c1ccc(C)cc1 [Example 27]	3.48			
CCON=C(C(=O)NCCc1ccc(OCC)c(OC)c1)c1ccc(Br)cc1 (mixture of isomers) [Example 19]		3.51	3.80	
CCOc1ccc(CCNC(=O)C(=NOC)c2ccc(Cl)cc2)cc1OC [Example 12]	3.26			
CCON=C(C(=O)NCCc1ccc(OCC)c(OC)c1)c1ccc(Br)cc1 [Example 24]	3.80			
CCOc1ccc(CCNC(=O)C(=NOC)c2ccc(CC)cc2)cc1OC [Example 16]	3.04			
CCOc1ccc(CCNC(=O)C(=NOC)c2ccc(CC)cc2)cc1OC [Example 17]	3.21			
CCON=C(C(=O)NCCc1ccc(OCC)c(OC)c1)c1ccc(C)cc1 (mixture of isomers) [Example 22]		3.19	3.48	
CCOc1ccc(CCNC(=O)C(=NOC)c2ccc(Cl)cc2)cc1OC [Example 11]	3.08			
CCOc1ccc(CCNC(=O)C(=NOC)c2ccc(Br)cc2)cc1OC [Example 9]	3.44			
CCON=C(C(=O)NCCc1ccc(OCC)c(OC)c1)c1ccc(Cl)cc1 (mixture of isomers) [Example 21]		3.41	3.69	
CCON=C(C(=O)NCCc1ccc(OCC)c(OC)c1)c1ccc(CC)cc1 (mixture of isomers) [Example 23]		3.55	3.85	
CCOc1ccc(CCNC(=O)C(=NOC)c2ccc(C)cc2)cc1OC (mixture of isomers) [Example 5]		2.87	3.05	
CCOc1ccc(CCNC(=O)C(=NOC)c2ccc(Br)cc2)cc1OC [Example 10]	3.18			
CCOc1ccc(CCNC(=O)C(=NOC)c2ccc(CC)cc2)cc1OC (mixture of isomers) [Example 6]		3.21	3.40	
CCOc1ccc(CCNC(=O)C(=NOC)c2ccc(Br)cc2)cc1OC (mixture of isomers) [Example 3]		3.18	3.44	
CCOc1ccc(CCNC(=O)C(=NOC)c2ccc(C)cc2)cc1OC [Example 15]	2.87			

Source: patent US6441043B1, “Glyoxylic acid amides” (priority 1997, dated 2002)
